Test system: retinal NV in OIR mouse model
Assay type: in vivo
Procedure: Retinal NV was induced in newborn mice as described previously. Briefly, P7 mice were exposed with their nursing mother, for 5 days [between P7 and P12] to hyperoxic conditions, by incubating them in an airtight chamber [PROOX 110 chamber O2 controller; Biospherix Ltd., Redfield, N.Y.] ventilated by a mixture of O2 and air to a final oxygen fraction of 75±2%. These incubation conditions induced vaso-obliteration and subsequent cessation of vascular development in the capillary beds of the central retina. At P12, the mice were allowed to recover in normal room air conditions and maintained for another 5 days [till P17], the day in which peak disease occurs. A condition of relative hypoxia resulted between P12 and P17, and extensive retinal NV developed in 100% of the mice. Age-matched animals with the hyperoxia-exposed groups were maintained identically, except they were exposed to room air […], 79% N2] for the entire duration of the experiment. All animals were examined and sacrificed on the same days.
A group of hyperoxia-exposed animals [n=15] were injected intravitreally [into both eyes] at P12 and P15 with 3 μl of YC-1 [100 μM] [drug-treated group]. Another group of hyperoxiaexposed mice [n=15] were injected intravitreally [into both eyes] at P12 and P15 with 3 μl of DMSO [0.2% [v/v]] [mock-treated group]. Non-treated mice grown under ambient conditions, non-treated hyperoxia-exposed mice, DMSO-treated hyperoxia-exposed mice and YC-1-treated hyperoxia-exposed mice, were all examined at different critical time points for qualitative assessment of the retinal vasculature by fluorescein angiography.
Deep anesthesia was induced by intraperitoneal injection of ketamine [1%], xylazine [0.1%], and sodium chloride [0.9%] in a concentration of 0.1 mL/10 g mouse body weight. Sternotomy was performed, the mice were perfused through the left ventricle with 600 μL of high-molecular-mass [2×106 Da] FITC-dextran in PBS [50 mg/ml], which was allowed to circulate for 2 minutes before the animals were euthanatized and the eyes enucleated and the flat mounts were prepared. Subsequent to retinal extraction, all retinas were fixed in 4% paraformaldehye for 24 hrs at 4° C. A dissecting microscope was used to dissect the cornea with a circumferential limbal incision, followed by removal of the lens and vitreous. Microscissors were used to make four radial incisions of the retinal eyecup in order to prepare retinal flat mounts on glass slides. Flat mounts were immersed in Aquamount mounting medium [Polysciences, Warrington, Pa.], coverslips were carefully placed over the retina, and the edges of the coverslips were sealed.
Images of the perfused retinas were captured with a fluorescence microscope [Zeiss Axiovert 135, Thornwood, N.Y.], and images were captured in a digital format in a 10× and 100× objectives using a digital camera [AxioCam, NY]. The extent of retinal NV was then quantified by Metamorph™ imaging software [Universal Imaging, Sunnyvale, Calif.]. Briefly, the entire retina was outlined to distinguish the total retinal area of each eye. Then, the images were thresholded to emphasize only the FITC-perfused vessels. This permitted the measurement of total BV area of each retina and the percentage of each retina that is engrossed with BVs. The entire mounted retinas were analyzed in a masked fashion [three observers] to minimize sampling bias. The total vascularized area was then normalized to the total retinal area and the percentage of the retina covered by vessels was calculated. The vascular area was quantified by setting a threshold level of fluorescence, above which only vessels were captured [density slicing]. The total surface area of the retina was outlined using the outermost vessel of the arcade near the ora serrata as the border. The central capillary dropout area was quantified from the digital images in masked fashion. […]

SMILES: OCc1ccc(-c2nn(Cc3ccccc3)c3ccccc23)o1 [YC-1, 3-(5′-hydroxymethyl-2′-furyl)-1-benzylindazole]
- retinal vasodilation (vessel diameters) (OIR mice, dual injection P12 and P15, P17): inhibited oxygen-injury-induced vasodilation
- area of pre-retinal neovascular tufts (OIR mice, dual injection, P17, vs DMSO-treated group): significantly decreased
- tortuosity index of retinal vessels (OIR mice, dual injection, P17, DMSO 1.059, normoxic 1.019): 1.026±0.001
- number of BV tufts/flat mount (OIR mice, dual intravitreal injection P12 and P15, P17, n=15, DMSO 198): 3.0±1.1
- vascularized regions, share of the total size of the retina (OIR mice, dual intravitreal injections, P17, DMSO 70%, normoxic ~99%): ~97%
- capillary-free (avascularized) regions, share of the size of the entire retina (OIR mice, intravitreal 3 μl YC-1 100 μM at P12 and P15, P17, DMSO-treated 30%): 2.2%±0.1
- retinal vaso-obliteration (OIR mice, vs obliterated areas of DMSO-treated retinas): significantly inhibited the retinal vaso-obliteration
- toxic effects on the retinal vasculature (mouse, in vivo): No obvious toxic effects
